Assay results as given in patent publication US7645781B2, “N-aryl-2-oxazolidinone-5-carboxamides and their derivatives” (Pfizer Inc, priority 2002, dated 2010).
In brackets after ≈: the same amount, converted by molar mass.

How the values were obtained:
[1] = system: Staphylococcus aureus (SAUR 9213); test: MIC by standard agar dilution method; assay type: cell-based; conditions: Mueller Hinton agar, incubated overnight at 35° C., read-out: MIC
Text: The antibacterial agents of this invention have useful activity against a variety of organisms. The in vitro activity of compounds of this invention can be assessed by standard testing procedures such as the determination of minimum inhibitory concentration (MIC) by agar dilution as described in “Approved Standard. Methods for Dilution Antimicrobial Susceptibility Tests for Bacteria That Grow Aerobically”, 3rd. ed., published 1993 by the National Committee for Clinical Laboratory Standards, Villanova, Pa., USA. The in vitro MICs of test compounds are determined by a standard agar dilution method. A stock drug solution of each analog is prepared in the preferred solvent, usually DMSO:H2O (1:3). Serial 2-fold dilutions of each sample are made using 1.0 ml aliquots of sterile distilled water. To each 1.0 ml aliquot of drug is added 9 ml of molten Mueller Hinton agar medium. The drug-supplemented agar is mixed, poured into 15×100 mm petri dishes, and allowed to solidify and dry prior to inoculation. Vials of each of the test organisms are maintained frozen in the vapor phase of a liquid nitrogen freezer. Test cultures are grown overnight at 35° C. on the medium appropriate for the organism. Colonies are harvested with a sterile swab, and cell suspensions are prepared in Trypticase Soy broth (TSB) to equal the turbidity of a 0.5 McFarland standard. A 1:20 dilution of each suspension is made in TSB. The plates containing the drug supplemented agar are inoculated with a 0.001 ml drop of the cell suspension using a Steers replicator, yielding approximately 10^4 to 10^5 cells per spot. The plates are incubated overnight at 35° C. Following incubation the Minimum Inhibitory Concentration (MIC μg/ml), the lowest concentration of drug that inhibits visible growth of the organism, is read and recorded.

SMILES | MIC [1] | melting point
CONC(=O)[C@H]1CN(c2ccc(N3CCOCC3)c(F)c2)C(=O)O1 [Example 5, (5R)-(−)-3-[3-Fluoro-4-(4-morpholinyl)phenyl]-N-methoxy-2-oxo-5-oxazolidinecarboxamide] | 16 µg/mL (≈ 47.2 µM) | 206 to 208 °C (dec.)
CNC(=O)[C@H]1CN(c2cc(F)c(N3CC[S+]([O-])CC3)c(F)c2)C(=O)O1 [Example 43, (5R)-(−)-N-Methyl-3-[3,5-difluoro-4-(thiomorpholin-4-yl)phenyl]-2-oxo-5-oxazolidinecarboxamide S-oxide] | 4 µg/mL (≈ 10.7 µM) | 237 to 241 °C
CNC(=O)[C@H]1CN(c2cc(F)c(N3CCS(=O)(=O)CC3)c(F)c2)C(=O)O1 [Example 44, (5R)-(−)-N-Methyl-3-[3,5-difluoro-4-(thiomorpholin-4-yl)phenyl]-2-oxo-5-oxazolidinecarboxamide S,S-dioxide] | 4 µg/mL (≈ 10.3 µM) | 243 to 246 °C
CCNC(=O)[C@H]1CN(c2ccc3c(c2)sc(=O)n3C)C(=O)O1 [Example 33, (5R)-(−)-N-Ethyl-3-(2,3-dihydro-3-methyl-2-oxo-6-benzothiazolyl)-2-oxo-5-oxazolidinecarboxamide] | 4 µg/mL (≈ 12.4 µM) | 224.5 to 226 °C
CC(C)n1c(=O)sc2cc(N3C[C@H](C(N)=O)OC3=O)ccc21 [Example 31, (5R)-(−)-3-(2,3-Dihydro-3-isopropyl-2-oxo-6-benzothiazolyl)-2-oxo-5-oxazolidinecarboxamide] | 1 µg/mL (≈ 3.11 µM) | 183 to 184.5 °C
NC(=O)[C@H]1CN(c2ccc(N3CCS(=O)(=O)CC3)cc2)C(=O)O1 [Example 18, (5R)-(−)-3-[4-(Thiomorpholin-4-yl)phenyl]-2-oxo-5-oxazolidinecarboxamide S,S-dioxide] | 16 µg/mL (≈ 47.1 µM) | 226 to 228 °C
C[C@@H]1Cc2cc(N3C[C@H](C(N)=O)OC3=O)ccc2N1C(=O)CO [Example 50, (5R)-3-[(2R)-2,3-Dihydro-1-(hydroxyacetyl)-2-methyl-1H-indol-5-yl]-2-oxo-5-oxazolidinecarboxamide] | 2 µg/mL (≈ 6.26 µM) | 198 to 200 °C
CNC(=O)[C@H]1CN(c2ccc3c(c2)sc(=O)n3C(C)C)C(=O)O1 [Example 37, (5R)-(−)-N-Methyl-3-(2,3-dihydro-3-isopropyl-2-oxo-6-benzothiazolyl)-2-oxo-5-oxazolidinecarboxamide] | 2 µg/mL (≈ 5.96 µM) | 172 to 173.5 °C
NC(=O)[C@H]1CN(c2ccc([C@H]3CC[S@@+]([O-])CC3)cc2)C(=O)O1 [Example 26, (5R)-3-[4-(cis-tetrahydro-1-oxido-2H-thiopyran-4-yl)phenyl]-2-oxo-5-oxazolidinecarboxamide] | 16 µg/mL (≈ 49.6 µM) | 269 to 273 °C (dec.)
CCn1c(=O)oc2cc(N3C[C@H](C(=O)NC)OC3=O)ccc21 [Example 52, (5R)-(−)-N-Methyl-3-(2,3-dihydro-3-ethyl-2-oxo-6-benzoxazolyl)-2-oxo-5-oxazolidinecarboxamide] | 2 µg/mL (≈ 6.55 µM) | 263 to 265 °C
NC(=O)[C@H]1CN(c2ccc([C@H]3CC[S@+]([O-])CC3)c(F)c2)C(=O)O1 [Example 24, (5R)-3-[3-Fluoro-4-(trans-tetrahydro-1-oxido-2H-thiopyran-4-yl)phenyl]-2-oxo-5-oxazolidinecarboxamide] | 2 µg/mL (≈ 5.88 µM) | 201 to 203 °C
NC(=O)[C@H]1CN(c2ccc([C@H]3CC[S@@+]([O-])CC3)c(F)c2)C(=O)O1 [Example 23, (5R)-3-[3-Fluoro-4-(cis-tetrahydro-1-oxido-2H-thiopyran-4-yl)phenyl]-2-oxo-5-oxazolidinecarboxamide] | 4 µg/mL (≈ 11.8 µM) | 279 to 281 °C (dec.)
NC(=O)[C@H]1CN(c2ccc(C3=NNC(=O)CS3)c(F)c2)C(=O)O1 [Example 64, (5R)-3-[3-Fluoro-4-(5-oxo-5,6-dihydro-4H-[1,3,4]thiadiazin-2-yl)phenyl]-2-oxo-5-oxazolidinecarboxamide] | 0.5 µg/mL (≈ 1.48 µM) | 249 to 251 °C
NC(=O)[C@H]1CN(c2ccc(C3=CCS(=O)(=O)CC3)c(F)c2)C(=O)O1 [Example 12, (5R)-(−)-3-[4-(3,6-Dihydro-2H-thiopyran-4-yl)-3-fluorophenyl]-2-oxo-5-oxazolidinecarboxamide S,S-dioxide] | 2 µg/mL (≈ 5.64 µM) | 206 to 208 °C
NC(=O)[C@H]1CN(c2ccc(C3CCS(=O)(=O)CC3)cc2)C(=O)O1 [Example 25, (5R)-(−)-3-[4-(tetrahydro-2H-thiopyran-4-yl)phenyl]-2-oxo-5-oxazolidinecarboxamide S,S-dioxide] | 8 µg/mL (≈ 23.6 µM) | 211 to 212 °C
CCCNC(=O)[C@H]1CN(c2ccc(N3CCOCC3)c(F)c2)C(=O)O1 [Example 4, (5R)-(−)-3-[3-Fluoro-4-(4-morpholinyl)phenyl]-N-propyl-2-oxo-5-oxazolidinecarboxamide] | 16 µg/mL (≈ 45.5 µM) | 165 to 167 °C
NC(=O)[C@H]1CN(c2ccc(N3CCS(=O)(=O)CC3)c(F)c2)C(=O)O1 [Example 20, (5R)-(−)-3-[3-Fluoro-4-(thiomorpholin-4-yl)phenyl]-2-oxo-5-oxazolidinecarboxamide S,S-dioxide] | 4 µg/mL (≈ 11.2 µM) | 245 to 247 °C (dec.)
NC(=O)[C@H]1CN(c2cc(F)c(N3CC[S+]([O-])CC3)c(F)c2)C(=O)O1 [Example 22, (5R)-(−)-3-[3,5-Difluoro-4-(thiomorpholin-4-yl)phenyl]-2-oxo-5-oxazolidinecarboxamide S-oxide] | 4 µg/mL (≈ 11.1 µM) | 273 to 276 °C (dec.)
CNC(=O)[C@H]1CN(c2ccc(N3CCOCC3)c(F)c2)C(=O)O1 [Example 2, (5R)-(−)-3-[3-Fluoro-4-(4-morpholinyl)phenyl]-N-methyl-2-oxo-5-oxazolidinecarboxamide] | 8 µg/mL (≈ 24.7 µM) | 182 to 183 °C (dec.)
NC(=O)[C@H]1CN(c2cc(F)c(N3CCOCC3)c(F)c2)C(=O)O1 [Example 17, (5R)-(−)-3-[3,5-Difluoro-4-(4-morpholinyl)phenyl]-2-oxo-5-oxazolidinecarboxamide] | 4 µg/mL (≈ 12.2 µM) | 181 to 183 °C
NC(=O)[C@H]1CN(c2ccc(C3=CCOCC3)c(F)c2)C(=O)O1 [Example 9, (5R)-(−)-3-[4-(3,6-Dihydro-2H-pyran-4-yl)-3-fluorophenyl]-2-oxo-5-oxazolidinecarboxamide] | 4 µg/mL (≈ 13.1 µM) | 164 to 169 °C
NC(=O)[C@H]1CN(c2ccc(C3CCS(=O)(=O)CC3)c(F)c2)C(=O)O1 [Example 28, (5R)-3-[4-(Tetrahydro-2H-thiopyran-4-yl)-3-fluorophenyl]-2-oxo-5-oxazolidinecarboxamide S,S-dioxide] | – | 231 to 234 °C (dec.)
CNC(=O)[C@H]1CN(c2cc(F)c3c(c2)oc(=O)n3C)C(=O)O1 [Example 89, (5R)-3-(4-Fluoro-3-methyl-2-oxo-2,3-dihydro-6-benzoxazolyl)-N-methyl-2-oxo-5-oxazolidinecarboxamide] | 16 µg/mL (≈ 51.7 µM) | –
CNC(=O)[C@H]1CN(c2ccc3c(c2)CCC(=O)N3C)C(=O)O1 [Example 68, (5R)-N-Methyl-3-(1-methyl-2-oxo-1,2,3,4-tetrahydroquinolin-6-yl)-2-oxo-5-oxazolidinecarboxamide] | 4 µg/mL (≈ 13.2 µM) | –
